Reference: patent US4925848A, “Derivative of codeine useful as an agonist and process for the preparation of it” (Reckitt & Colman Products Limited, priority 1987, dated 1990)
In brackets after ≈: the same amount, converted by molar mass. Entries after “also recorded” stand apart in the source; their conditions may differ.

How the values were obtained:
kappa opioid receptor = test: Mouse vas deferens preparation (MVD), kappa receptor (ethylketocyclazocine); type: cell-based; conditions: in vitro MVD; antagonist of ethylketocyclazocine; read-out: ke, k
Excerpt: (§1) To obtain some insight into the profiles at opioid receptor subtypes compounds of formula III where R=H, Cl, Br and Me were therefore examined in isolated tissue preparations. Comparative data on the previously disclosed dehydro compounds of formula III is also included. The results obtained in the mouse was deferens preparation (MVD)(Henderson et al Brit J Pharmacol., 46,764, 1972) for these compounds are shown in Table 2. Although the unsubstituted compounds (R=H) were full agonists in this test situation no delta-agonist properties could be detected. […] The corresponding methyl and bromo dihydro compounds were antagonists with the rank order of affinities: mu>delta>kappa.
(§2) ke = Molar concentration of antagonist at which twice the concentration o
(§3) the agonist was required to produce the same response as that produced in
(§4) the absence of the antagonist; μ Agonist = Normorphine (NM); kAgonist
(§5) Ethylketocyclazocine; dAgonist = DAla-D-Leu Enkephalin.

mu opioid receptor = target: T1, mu opioid receptor (Mus musculus, UniProt P42866); test: Mouse vas deferens preparation (MVD), mu receptor (normorphine); type: cell-based; conditions: in vitro MVD; for Kb: antagonist of normorphine, read-out: ke, μ
T1 construct: mu agonist normorphine
Excerpt: as §1, §2, §3, §4, §5

kappa receptor = kappa receptor (Cavia porcellus, UniProt P41144); test: GPI preparation, kappa receptor agonism; type: cell-based, guinea pig; conditions: in words
[1] = tested on: drug reinforcing effects in rhesus monkeys; test: Self-administration study in codeine-trained rhesus monkeys (drug reinforcing effects); type: in vivo, rhesus monkey; conditions: for response rates maintained compared with codeine: similar conditions, FIGS. 2 and 3
Protocol: Drug reinforcing effects were evaluated in rhesus monkeys trained to respond for 0.32 mg/kg/iv injection of codeine.

opioid receptor subtypes = test: Mouse vas deferens preparation (MVD), agonist/antagonist profile at opioid receptor subtypes; type: cell-based; conditions: for rank order of affinities: antagonists
Excerpt: as §1, §2, §3, §4, §5

delta opioid receptor = target: T2, delta opioid receptor (Mus musculus, UniProt P32300); test: Mouse vas deferens preparation (MVD), delta receptor (DAla-D-Leu enkephalin); type: cell-based; conditions: for Kb: antagonist of DAla-D-Leu enkephalin, read-out: ke, d
T2 construct: delta agonist DAla-D-Leu enkephalin
Excerpt: as §1, §2, §3, §4, §5

[2] = tested on: rat tail pressure antinociception; test: Rat tail pressure (RTP) antinociceptive test; type: in vivo; conditions: for agonist activity in the RPT test: in words
Excerpt: Compounds of formula III were initially examined in two antinociceptive tests (in vivo) to assess their analgesic potential and are shown in the following Table 1. These tests were:
(2) The rat tail pressure (RTP) which is described by Green and Young, (Br. J. Pharmac Chemother., 6,572, 1951).

[3] = tested on: morphine antagonist activity; conditions: s.c., reported in a response filed during prosecution of the corresponding U.S. application; cited from earlier work
mu receptor = test: GPI preparation, mu receptor agonism; type: cell-based, guinea pig; conditions: in words
kappa and mu receptors = test: DMPP stimulated guinea pig ileum (GPI) preparation (kappa and mu test); type: cell-based; conditions: in words
Excerpt: *In the guinea pig ileum preparation (GPI), as described on page 268 of […]

delta receptor = target: T3, delta receptor (Mus musculus, UniProt P32300); test: MVD agonist effects of compound I in absence/presence of RX 8008M or naltrexone; type: cell-based
T3 construct: agonism of compound I with delta-selective antagonist RX or mu-selective naltrexone
Excerpt: ^a Groups (n = 2-6) of MVD used in each treatment schedule.
^b IC40 is the concentration of agonist required to reduce the
maximal contraction to electrical stimulation by 40 percent. The slow
values in the presence or absence of the antagonists in the same

T1 sequence (P42866 whole entry): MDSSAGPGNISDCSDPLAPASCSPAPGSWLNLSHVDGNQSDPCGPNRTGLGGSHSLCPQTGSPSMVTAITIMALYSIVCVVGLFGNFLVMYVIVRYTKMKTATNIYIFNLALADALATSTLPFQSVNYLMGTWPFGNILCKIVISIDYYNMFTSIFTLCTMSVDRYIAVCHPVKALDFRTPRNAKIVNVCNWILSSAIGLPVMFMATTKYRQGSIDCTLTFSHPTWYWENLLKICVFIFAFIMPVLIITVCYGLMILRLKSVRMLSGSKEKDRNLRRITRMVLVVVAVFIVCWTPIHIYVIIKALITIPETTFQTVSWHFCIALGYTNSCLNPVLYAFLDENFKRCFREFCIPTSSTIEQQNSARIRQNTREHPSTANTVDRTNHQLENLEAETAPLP
T2 sequence (P32300 whole entry): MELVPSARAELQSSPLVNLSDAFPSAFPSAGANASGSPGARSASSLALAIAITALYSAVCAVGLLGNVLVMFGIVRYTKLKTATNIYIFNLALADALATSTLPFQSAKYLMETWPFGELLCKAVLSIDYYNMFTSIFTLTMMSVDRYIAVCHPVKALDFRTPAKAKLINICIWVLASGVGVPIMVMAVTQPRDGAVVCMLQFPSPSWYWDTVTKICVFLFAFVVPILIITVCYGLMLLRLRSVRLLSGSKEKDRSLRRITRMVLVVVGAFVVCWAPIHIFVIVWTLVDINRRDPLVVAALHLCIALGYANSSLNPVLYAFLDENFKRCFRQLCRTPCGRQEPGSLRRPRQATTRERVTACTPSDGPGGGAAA
T3 sequence (P32300 whole entry): as above
Sequence of kappa receptor (P41144 whole entry): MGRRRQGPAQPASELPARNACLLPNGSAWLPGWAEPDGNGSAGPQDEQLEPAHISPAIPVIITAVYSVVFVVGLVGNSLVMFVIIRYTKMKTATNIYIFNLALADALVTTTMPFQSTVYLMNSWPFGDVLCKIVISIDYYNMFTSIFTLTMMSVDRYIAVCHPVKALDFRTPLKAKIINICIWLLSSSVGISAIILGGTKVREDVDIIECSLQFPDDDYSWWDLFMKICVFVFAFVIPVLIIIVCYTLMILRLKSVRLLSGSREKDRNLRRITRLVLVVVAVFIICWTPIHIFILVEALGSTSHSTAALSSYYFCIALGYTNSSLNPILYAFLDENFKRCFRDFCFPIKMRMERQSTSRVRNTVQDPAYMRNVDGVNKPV

COc1ccc2c3c1O[C@H]1C(=O)CC[C@@]4(NC(=O)C=Cc5ccc(C)cc5)[C@@H](C2)N(CC2CC2)CC[C@]314 [Me dihydro]
Kb (kappa opioid receptor): 66.3 nM
Kb (mu opioid receptor): 0.28 nM
kappa agonist activity in GPI (kappa receptor): predominantly kappa partial agonist activity
response rates maintained compared with codeine [1]: appropriately equal to the level of responding maintained by codeine
rank order of affinities (opioid receptor subtypes; in vitro MVD): mu>delta>kappa
MVD activity profile (opioid receptor subtypes; in vitro MVD, in words): antagonists
Kb (delta opioid receptor; in vitro MVD): 19.3 nM

COc1ccc2c3c1O[C@H]1C(=O)CC[C@@]4(NC(=O)C=Cc5ccccc5)[C@@H](C2)N(CC2CC2)CC[C@]314 [H dihydro]
agonist potency relative to normorphine (× NM) (mu opioid receptor): 72,000 × NM
MVD activity profile (opioid receptor subtypes; in vitro MVD, in words): μ Agonist
delta agonism in MVD (delta opioid receptor; in vitro MVD, in words): No d-agonism detected

O=CN[C@@]12CCC(=O)[C@@H]3Oc4c(O)ccc5c4[C@@]31CCN(CC1CC1)[C@@H]2C5 [Example 108]
agonist activity in the RPT test [2]: neither the dehydro compound (Example 49) nor the dihydro compound (Example 108) exhibited agonist activity
AD50 (RTF test) [3]: 0.16 mg/kg

COc1ccc2c3c1O[C@H]1C(=O)CC[C@@]4(NC(=O)C=Cc5ccc(Cl)cc5)[C@@H](C2)N(CC2CC2)CC[C@]314 [I, 14-β-p-chlorocinnamoylamino-7,8-dihydro-N-cyclopropylmethyl-norcodeinone]
mu agonist activity in GPI (mu receptor; DMPP stimulated GPI): low intrinsic activity mu agonist
intrinsic activity at mu receptors, in vitro summary (mu receptor): low intrinsic acitivity at mu receptors
response rates maintained compared with saline ([1]; 0.0003-0.01 mg/kg, i.v., substituted for codeine, single 130 minute sessions, FIG. 1): identical to those maintained by saline
GPI dose-response curve / agonist activity (kappa and mu receptors): very shallow dose-response curve
antagonism of GPI response by RX 8008M (kappa and mu receptors; RX 8008M (25 nM)): atagonised by RX 8008M (25 nM)
IC40 (delta receptor): 0.098 ng/mL
IC40 in presence of RX 8008M (delta receptor; MVD, + RX 8008M (10 ng/ml)): 9.15 + 3.4 ng/ml
IC40 in presence of naltrexone (delta receptor; MVD, + naltrexone (100 ng/ml)): 1.44 + 0.01 ng/ml
EC40 (delta opioid receptor; in vitro MVD, Table 2, read-out: ED40 (d-agonism)): 3.1 ng/mL (≈ 5.97 nM)
delta agonism in MVD (delta opioid receptor; in vitro MVD, in words): delta-agonist activity; also recorded: d-Agonist
intrinsic activity at delta-receptors, in vitro summary (delta opioid receptor; in words): substantial level of intrinsic activity at delta-receptors

COc1ccc2c3c1O[C@H]1C(=O)C=C[C@@]4(NC(=O)C=Cc5ccccc5)[C@@H](C2)N(CC2CC2)CC[C@]314 [Ex. 15]
agonist potency relative to normorphine (× NM) (mu opioid receptor): 200 × NM
MVD activity profile (opioid receptor subtypes; in vitro MVD, in words): μ and k-Agonist

O=CN[C@@]12C=CC(=O)[C@@H]3Oc4c(O)ccc5c4[C@@]31CCN(CC1CC1)[C@@H]2C5 [Example 49]
agonist activity in the RPT test [2]: neither the dehydro compound (Example 49) nor the dihydro compound (Example 108) exhibited agonist activity
AD50 (RTF test) [3]: 0.132 mg/kg

COc1ccc2c3c1O[C@H]1C(=O)C=C[C@@]4(NC(=O)C=Cc5ccc(Cl)cc5)[C@@H](C2)N(CC2CC2)CC[C@]314 [Ex. 91]
EC40 (opioid receptor subtypes; Mus musculus, in vitro MVD, Table 2, read-out: ED40 (μ + k-agonism)): > 0.3 µg/mL
MVD activity profile (opioid receptor subtypes; in vitro MVD, in words): Weak μ + k-Agonist
delta agonism in MVD (delta opioid receptor; in vitro MVD, in words): No d-agonism detected

COc1ccc(C=CC(=O)N[C@@]23CCC(=O)[C@@H]4Oc5c(OC)ccc6c5[C@@]42CCN(CC2CC2)[C@@H]3C6)cc1 [OMe dihydro]
RTP, percent effect ([2]; at 1 mg/kg, Table 1): 40%

COc1ccc2c3c1O[C@H]1C(=O)CC[C@@]4(NC(=O)C=Cc5ccc(Br)cc5)[C@@H](C2)N(CC2CC2)CC[C@]314 [Br dihydro]
Kb (kappa opioid receptor): 27.3 nM
Kb (mu opioid receptor): 0.32 nM
response rates maintained compared with codeine [1]: appropriately equal to the level of responding maintained by codeine
rank order of affinities (opioid receptor subtypes; in vitro MVD): mu>delta>kappa
MVD activity profile (opioid receptor subtypes; in vitro MVD, in words): antagonists
agonist activity in MVD (opioid receptor subtypes; in words): negligible agonist activity
GPI dose-response curve / agonist activity (kappa and mu receptors): negligible agonist activity
Kb (delta opioid receptor; in vitro MVD): 8.6 nM

COc1ccc2c3c1O[C@H]1C(=O)C=C[C@@]4(NC(=O)C=Cc5ccc(C)cc5)[C@@H](C2)N(CC2CC2)CC[C@]314 [Ex. 92]
MVD activity profile (opioid receptor subtypes; in vitro MVD, in words): Partial μ Agonist
